US8222425B2, “Organic compounds and their uses” (Novartis AG, priority 2007, dated 2012)
Values after ≈ are worked out from the molar mass of the structure shown. Like-named read-outs stand apart in the source and are kept apart here.

Legend:
[1] = Thermodynamic solubility; format: physicochemical; conditions: thermodynamic from solid
Procedure: Thermodynamic solubility for the compounds of the invention listed in Table C is measured by a published literature procedure, e.g., Liping Zhou, et al., J. Pharm. Sci. (2007) 96(11): 3052-3071.
The DMSO stocks of test compounds previously dissolved in 25 μL of DMSO (˜10 mM) in mini-prep vial (MPV: Whatman, with PVDF filter and 0.45 μm pore size) chamber were evaporated via a GeneVac HT-4X evaporator for approximately 1 hour, at the guard temperature of 30° C. An aliquot of 250 μL buffer solution (pH 1.0 or 6.8) was added into each MPV chamber containing powders reconstituted from DMSO stock solutions. The MPV filter plungers were pushed down into the chamber until the membrane of the filter plunger slightly touched the surface of the buffer to promote equilibrium between the two compartments and to minimize the adsorption due to non-specific binding of samples during the subsequent 24-hr incubation (at 600 RPM at room temperature). Immediately after the 24-hr incubation, the plungers were further pushed down to the bottom of the chambers. More solution was pushed through the membrane and entered the plunger compartment. The filter/chamber assemblies were then put on a shaker for another 30 minutes at 600 RPM. Afterwards, filtrates were further diluted (1:10) with 50/50 acetonitrile/water solvent followed by a thorough mixing process. Both plates with diluted and undiluted filtrates were analyzed by HPLC and quantified against the four-point standard dilution curve of the same test compound (5 μM, 35 μM, 65 μM and 100 μM, respectively). In the current study, solubility reflects the average of triplicate samples tested at each pH.

[2] = Pharmacokinetic profile in rats; set-up: species or system Sprague Dawley rats; conditions: rat, in vivo; for Cmax: Sprague Dawley; for Cmax / AUC: po, 10 mg/kg
Procedure: Compounds listed in Table D are administered as a solution orally via gavage at 10 mg/kg to Sprague Dawley rats at a dosing volume of 10 ml/kg. Samples are collected via a surgically implanted cannula at selected timepoints deemed necessary to characterize pharmacokinetic parameters. Blood samples are placed on wet ice and spun down to plasma within 5 minutes of timepoint collection. Plasma samples are frozen until bioanalytical analysis. Compounds listed in Table D are administered intravenously into a surgically implanted cannula as a solution at 1 mg/kg to Sprague Dawley rats at a dosing volume of 1 ml/kg. Samples are collected via another surgically implanted cannula at selected timepoints deemed necessary to characterize pharmacokinetic parameters. Blood samples are placed on wet ice and spun down to plasma within 5 minutes of timepoint collection. Plasma samples are frozen until bioanalytical analysis.

[3] = test system: HCV; conditions: ribavirin alone; cited from earlier work

Row | solubility at 24 h ([1]; pH 1, simulated gastric fluid) | solubility at 24 h ([1]; pH 6.8, aqueous buffer) | Cmax [2] | AUC [2] | Compound | further results
1 | 740 µM (≈ 557 µg/mL) | 690 µM (≈ 520 µg/mL) | – | – | CCC[C@H](NC(=O)[C@@H]1C[C@@]2(CN1C(=O)[C@@H](NC(=O)[C@@H](NC(=O)[C@H]1CCCN(C)C1)C(C)(C)C)C1CCCCC1)C(C)(C)C21CCC1)C(=O)C(=O)NC1CC1 [Compound A-67] | –
2 | 790 µM (≈ 584 µg/mL) | 110 µM (≈ 81.3 µg/mL) | – | – | CCC[C@H](NC(=O)[C@@H]1C[C@@]2(CN1C(=O)[C@@H](NC(=O)[C@@H](NC(=O)[C@@H]1CCCN1C)C1CCCCC1)C(C)(C)C)C(C)(C)C21CCC1)C(=O)C(=O)NC1CC1 [Compound A-33] | –
3 | 480 µM (≈ 375 µg/mL) | 44 µM (≈ 34.4 µg/mL) | – | – | CCC[C@H](NC(=O)[C@@H]1C[C@@]2(CN1C(=O)[C@@H](NC(=O)[C@@H](NC(=O)[C@H]1CCCCN1C(C)C)C1CCCCC1)C(C)(C)C)C(C)(C)C21CCC1)C(=O)C(=O)NC1CC1 [Compound A-5] | –
4 | 910 µM (≈ 685 µg/mL) | 24 µM (≈ 18.1 µg/mL) | 1470 nM | 460 nM·h/mg/kg | CCC[C@H](NC(=O)C1C[C@@]2(CN1C(=O)[C@@H](NC(=O)[C@@H](NC(=O)[C@@H]1CCCN1CC)C1CCCCC1)C(C)(C)C)C(C)(C)C21CCC1)C(=O)C(=O)NC1CC1 (stereo partly shown) [Compound A-10] | Bioavailability [2]: 46 % F
5 | 630 µM (≈ 492 µg/mL) | 200 µM (≈ 156 µg/mL) | – | – | CCCC(NC(=O)[C@@H]1C[C@@]2(CN1C(=O)[C@@H](NC(=O)[C@@H](NC(=O)[C@@H]1CCCN(C(C)C)C1)C1CCCCC1)C(C)(C)C)C(C)(C)C21CCC1)C(=O)C(=O)NC1CC1 (stereo in doubt) [Compound A-4] | –
6 | 690 µM (≈ 521 µg/mL) | 64 µM (≈ 48.3 µg/mL) | 1110 nM | 523 nM·h/mg/kg | CCC[C@H](NC(=O)[C@@H]1C[C@@]2(CN1C(=O)[C@@H](NC(=O)[C@@H](NC(=O)[C@@H]1CCCCN1C(C)C)C(C)(C)C)C(C)(C)C)C(C)(C)C21CCC1)C(=O)C(=O)NC1CC1 [Compound A-44] | Bioavailability [2]: 43 % F
7 | 810 µM (≈ 589 µg/mL) | < 5 µM | – | – | CCC[C@H](NC(=O)[C@@H]1C[C@@]2(CN1C(=O)[C@@H](NC(=O)[C@@H](NC(=O)[C@@H]1CCN1C(C)C)C(C)(C)C)C(C)(C)C)C(C)(C)C21CCC1)C(=O)C(=O)NC1CC1 [Compound A-73] | –
8 | – | – | – | – | NC(=O)c1ncn([C@@H]2O[C@H](CO)[C@@H](O)[C@H]2O)n1 [Ribavirin, 1-β-D-ribofuranosyl-1-1,2,4-triazole-3-caroxamide] | patients in whom serum amino transferase levels are reduced to normal [3]: 40%
9 | 830 µM (≈ 638 µg/mL) | < 5 µM | – | – | CCC[C@H](NC(=O)[C@@H]1C[C@@]2(CN1C(=O)[C@@H](NC(=O)[C@@H](NC(=O)[C@@H]1CCCCN1C(C)C)C(C)(C)C)C(C)(C)C)C(C)(C)C21CCC1)C(=O)C(=O)NC1CCC1 [Compound A-82] | –
10 | 840 µM (≈ 622 µg/mL) | 340 µM (≈ 252 µg/mL) | – | – | CCC[C@H](NC(=O)[C@@H]1C[C@@]2(CN1C(=O)[C@@H](NC(=O)[C@@H](NC(=O)[C@H]1CCCCN1CC)C(C)(C)C)C(C)(C)C)C(C)(C)C21CCC1)C(=O)C(=O)NC1CC1 [Compound A-72] | –
11 | 640 µM (≈ 510 µg/mL) | 290 µM (≈ 231 µg/mL) | – | – | CCC[C@H](NC(=O)[C@@H]1C[C@@]2(CN1C(=O)[C@@H](NC(=O)[C@@H](NC(=O)[C@@H]1CN(C)CCN1C(C)C)C1CCCCC1)C(C)(C)C)C(C)(C)C21CCC1)C(=O)C(=O)NC1CC1 [Compound A-43] | –
12 | 930 µM (≈ 726 µg/mL) | < 5 µM | – | – | CCC[C@H](NC(=O)[C@@H]1C[C@@]2(CN1C(=O)[C@@H](NC(=O)[C@@H](NC(=O)[C@@H]1CCCCN1C(C)C)C1CCCCC1)C(C)(C)C)C(C)(C)C21CCC1)C(=O)C(=O)NC1CC1 [Compound A-6] | –
13 | 720 µM (≈ 562 µg/mL) | < 5 µM | – | – | CCC[C@H](NC(=O)[C@@H]1C[C@@]2(CN1C(=O)[C@@H](NC(=O)[C@@H](NC(=O)[C@@H]1CCCCN1C(C)C)C(C)(C)C)C1CCCCC1)C(C)(C)C21CCC1)C(=O)C(=O)NC1CC1 [Compound A-45] | –
14 | 830 µM (≈ 625 µg/mL) | 240 µM (≈ 181 µg/mL) | – | – | CCC[C@H](NC(=O)[C@@H]1C[C@@]2(CN1C(=O)[C@@H](NC(=O)[C@@H](NC(=O)[C@@H]1CCCN(C)C1)C1CCCCC1)C(C)(C)C)C(C)(C)C21CCC1)C(=O)C(=O)NC1CC1 [Compound A-50] | –
15 | 930 µM (≈ 700 µg/mL) | < 5 µM | 796 nM | 241 nM·h/mg/kg | CCC[C@H](NC(=O)[C@@H]1C[C@@]2(CN1C(=O)[C@@H](NC(=O)[C@@H](NC(=O)[C@@H]1CCN1C(C)C)C1CCCCC1)C(C)(C)C)C(C)(C)C21CCC1)C(=O)C(=O)NC1CC1 [Compound A-62] | Bioavailability [2]: 36 % F
16 | 840 µM (≈ 633 µg/mL) | 600 µM (≈ 452 µg/mL) | – | – | CCC[C@H](NC(=O)[C@@H]1C[C@@]2(CN1C(=O)[C@@H](NC(=O)[C@@H](NC(=O)[C@@H]1CCCN(C)C1)C(C)(C)C)C1CCCCC1)C(C)(C)C21CCC1)C(=O)C(=O)NC1CC1 [Compound A-66] | –
17 | 790 µM (≈ 619 µg/mL) | 28 µM (≈ 21.9 µg/mL) | 1430 nM | 416 nM·h/mg/kg | CCC[C@H](NC(=O)[C@@H]1C[C@@]2(CN1C(=O)[C@@H](NC(=O)[C@@H](NC(=O)[C@@H]1CCCCN1C(C)C)C1CCCCC1)C(C)(C)C)C(C)(C)C21CCC1)C(=O)C(=O)NC(C)C [Compound A-54] | Bioavailability [2]: 28 % F
18 | – | – | – | – | C=C[C@@H]1C[C@]1(NC(=O)[C@@H]1C[C@@]2(CN1C(=O)[C@@H](NC(=O)[C@@H](NC(=O)[C@@H]1CCCCN1C(C)C)C(C)(C)C)C(C)(C)C)C(C)(C)C21CCC1)C(=O)NS(=O)(=O)C1CC1 [Compound A-7] | solubility at 24 h ([1]; aqueous buffer, thermodynamic solubility, buffer pH 6.8, 24-hr incubation at room temperature, read-out: Solubility (pH 6.8)): 840 µM (≈ 673 µg/mL); solubility at 24 h ([1]; simulated gastric fluid, thermodynamic solubility, buffer pH 1.0, 24-hr incubation at room temperature, read-out: Solubility (pH 1)): 900 µM (≈ 721 µg/mL)
19 | 840 µM (≈ 622 µg/mL) | 550 µM (≈ 408 µg/mL) | 653 nM | 203 nM·h/mg/kg | CCC[C@H](NC(=O)[C@@H]1C[C@@]2(CN1C(=O)[C@@H](NC(=O)[C@@H](NC(=O)[C@H]1CCCN(CC)C1)C(C)(C)C)C(C)(C)C)C(C)(C)C21CCC1)C(=O)C(=O)NC1CC1 [Compound A-59] | –
20 | 870 µM (≈ 655 µg/mL) | 92 µM (≈ 69.3 µg/mL) | – | – | CCC[C@H](NC(=O)C1C[C@@]2(CN1C(=O)[C@@H](NC(=O)[C@@H](NC(=O)[C@H]1CCCN1CC)C1CCCCC1)C(C)(C)C)C(C)(C)C21CCC1)C(=O)C(=O)NC1CC1 (stereo partly shown) [Compound A-11] | –
21 | 710 µM (≈ 545 µg/mL) | < 85 µM | 904 nM | 274 nM·h/mg/kg | CCCC(NC(=O)[C@@H]1C[C@@]2(CN1C(=O)[C@@H](NC(=O)[C@@H](NC(=O)C1CCN1C(C)(C)C)C1CCCCC1)C(C)(C)C)C(C)(C)C21CCC1)C(=O)C(=O)NC1CC1 (stereo partly shown) [Compound A-64] | –
22 | 960 µM (≈ 698 µg/mL) | 930 µM (≈ 676 µg/mL) | – | – | CCC[C@H](NC(=O)[C@@H]1C[C@@]2(CN1C(=O)[C@@H](NC(=O)[C@@H](NC(=O)[C@@H]1CCCN(C)C1)C(C)(C)C)C(C)(C)C)C(C)(C)C21CCC1)C(=O)C(=O)NC1CC1 [Compound A-58] | –
23 | 700 µM (≈ 537 µg/mL) | 170 µM (≈ 130 µg/mL) | 2030 nM | 474 nM·h/mg/kg | CCC[C@H](NC(=O)[C@@H]1C[C@@]2(CN1C(=O)[C@@H](NC(=O)[C@@H](NC(=O)[C@@H]1CCCN(CC)C1)C1CCCCC1)C(C)(C)C)C(C)(C)C21CCC1)C(=O)C(=O)NC1CC1 [Compound A-15] | Bioavailability [2]: 42 % F
